These are literature values, as cited in patent US7427493B2, “Recombinant genes for polyketide modifying enzymes” (Kosan Biosciences Incorporated, priority 2002, dated 2008).

SMILES strings stand for the structures.

This data set relates to parasites. The following applies: background statement.

For `CC[C@H]1OC(=O)[C@H](C)[C@@H](O[C@H]2C[C@@](C)(OC)[C@@H](O)[C@H](C)O2)[C@H](C)[C@@H](O[C@@H]2O[C@H](C)C[C@H](N(C)C)[C@H]2O)[C@](C)(O)C[C@@H](C)C(=O)[C@H](C)[C@@H](O)[C@]1(C)O` [erythromycin], the antiparasitic activity result is recorded as “does not have antiparasitic activity”.
